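The compound was tested at five concentrations on cells cultured in 96-well plates, with a 48-hour exposure period. Here, GI50 denotes the concentration required for 50% inhibition of growth.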 Activity calls are given as the source filed them. Rule as the data show it: active = GI50 up to about 1.1 µM and inactive = higher.
What was measured:
Test in all cases: DTP human tumour cell line panel, 48 h
CCRF-CEM = test system: CCRF-CEM
M19-MEL = test system: M19-MEL
HT-29 = test system: HT-29
M14 = test system: M14
SK-MEL-28 = test system: SK-MEL-28
KM-20L2 = test system: KM-20L2
SNB-78 = test system: SNB-78
HCT-15 = test system: HCT-15
KM12 = test system: KM12
LOX IMVI = test system: LOX IMVI
OVCAR-4 = test system: OVCAR-4
ACHN = test system: ACHN
RPMI-8226 = test system: RPMI-8226
HOP-18 = test system: HOP-18
SK-MEL-5 = test system: SK-MEL-5
K562 = test system: K562
UO-31 = test system: UO-31
HOP-62 = test system: HOP-62
HCT-116 = test system: HCT-116
TK-10 = test system: TK-10
SN12C = test system: SN12C
SF-268 = test system: SF-268
NCI-H226 = test system: NCI-H226
HL-60 = test system: HL-60
NCI-H522 = test system: NCI-H522
CAKI-1 = test system: CAKI-1
MOLT-4 = test system: MOLT-4
DMS-273 = test system: DMS-273
SF-539 = test system: SF-539
Malme-3M = test system: Malme-3M
A549 = test system: A549
SR = test system: SR
RXF 393 = test system: RXF 393
HOP-92 = test system: HOP-92
786-0 = test system: 786-0
DMS-114 = test system: DMS-114
OVCAR-8 = test system: OVCAR-8
U-251 = test system: U-251
SF-295 = test system: SF-295
COLO 205 = test system: COLO 205
OVCAR-3 = test system: OVCAR-3
LXFL 529 = test system: LXFL 529
UACC-62 = test system: UACC-62
SK-MEL-2 = test system: SK-MEL-2
DLD-1 = test system: DLD-1
NCI-H460 = test system: NCI-H460
SW-620 = test system: SW-620
SK-OV-3 = test system: SK-OV-3
IGROV-1 = test system: IGROV-1
NCI-H23 = test system: NCI-H23
OVCAR-5 = test system: OVCAR-5
UACC-257 = test system: UACC-257
SNB-75 = test system: SNB-75
EKVX = test system: EKVX
A498 = test system: A498
SNB-19 = test system: SNB-19
RXF 631 = test system: RXF 631
HCC 2998 = test system: HCC 2998
XF498 = test system: XF498

SMILES: Cc1cc(O)nc(NNC(C#N)c2ccc([N+](=O)[O-])cc2)n1 (stereo not drawn)
- GI50 (CCRF-CEM): > 100 µM (inactive)
- GI50 (M19-MEL): > 100 µM (inactive)
- GI50 (HT-29): > 100 µM (inactive)
- GI50 (M14): > 100 µM (inactive)
- GI50 (SK-MEL-28): > 100 µM (inactive)
- GI50 (KM-20L2): > 100 µM (inactive)
- GI50 (SNB-78): 42.6 µM (inactive)
- GI50 (HCT-15): > 100 µM
- GI50 (KM12): 84.9 µM (inactive)
- GI50 (LOX IMVI): > 100 µM (inactive)
- GI50 (OVCAR-4): > 100 µM (inactive)
- GI50 (ACHN): 74.8 µM (inactive)
- GI50 (RPMI-8226): > 100 µM (inactive)
- GI50 (HOP-18): > 100 µM (inactive)
- GI50 (SK-MEL-5): > 100 µM (inactive)
- GI50 (K562): > 100 µM (inactive)
- GI50 (UO-31): 47.5 µM (inactive)
- GI50 (HOP-62): > 100 µM (inactive)
- GI50 (HCT-116): 80.4 µM (inactive)
- GI50 (TK-10): > 100 µM (inactive)
- GI50 (SN12C): > 100 µM (inactive)
- GI50 (SF-268): > 100 µM (inactive)
- GI50 (NCI-H226): > 100 µM (inactive)
- GI50 (HL-60): 63.4 µM (inactive)
- GI50 (NCI-H522): > 100 µM (inactive)
- GI50 (CAKI-1): 33.4 µM (inactive)
- GI50 (MOLT-4): > 100 µM (inactive)
- GI50 (DMS-273): 91.4 µM (inactive)
- GI50 (SF-539): > 100 µM (inactive)
- GI50 (Malme-3M): 70.1 µM (inactive)
- GI50 (A549): > 100 µM (inactive)
- GI50 (SR): 26.3 µM (inactive)
- GI50 (RXF 393): 93.8 µM (inactive)
- GI50 (HOP-92): > 100 µM (inactive)
- GI50 (786-0): > 100 µM (inactive)
- GI50 (DMS-114): 45.6 µM (inactive)
- GI50 (OVCAR-8): > 100 µM (inactive)
- GI50 (U-251): > 100 µM (inactive)
- GI50 (SF-295): > 100 µM (inactive)
- GI50 (COLO 205): > 100 µM (inactive)
- GI50 (OVCAR-3): > 100 µM (inactive)
- GI50 (LXFL 529): > 100 µM (inactive)
- GI50 (UACC-62): > 100 µM (inactive)
- GI50 (SK-MEL-2): > 100 µM (inactive)
- GI50 (DLD-1): > 100 µM (inactive)
- GI50 (NCI-H460): > 100 µM (inactive)
- GI50 (SW-620): 95.3 µM (inactive)
- GI50 (SK-OV-3): > 100 µM (inactive)
- GI50 (IGROV-1): 76.9 µM (inactive)
- GI50 (NCI-H23): > 100 µM (inactive)
- GI50 (OVCAR-5): > 100 µM (inactive)
- GI50 (UACC-257): > 100 µM (inactive)
- GI50 (SNB-75): 34.8 µM (inactive)

SMILES: COc1ccc(C(=O)O)c2c(=O)c3cccnc3[nH]c12
- GI50 (CCRF-CEM): > 100 µM (inactive)
- GI50 (M19-MEL): > 100 µM (inactive)
- GI50 (HT-29): > 100 µM (inactive)
- GI50 (M14): > 100 µM (inactive)
- GI50 (EKVX): > 100 µM (inactive)
- GI50 (SK-MEL-28): > 100 µM (inactive)
- GI50 (KM-20L2): > 100 µM (inactive)
- GI50 (SNB-78): > 100 µM (inactive)
- GI50 (KM12): > 100 µM (inactive)
- GI50 (ACHN): > 100 µM (inactive)
- GI50 (UO-31): > 100 µM (inactive)
- GI50 (HOP-62): > 100 µM (inactive)
- GI50 (HCT-116): > 100 µM (inactive)
- GI50 (TK-10): > 100 µM (inactive)
- GI50 (HL-60): > 100 µM (inactive)
- GI50 (NCI-H522): > 100 µM (inactive)
- GI50 (MOLT-4): > 100 µM (inactive)
- GI50 (A549): > 100 µM (inactive)
- GI50 (SR): > 100 µM (inactive)
- GI50 (RXF 393): > 100 µM (inactive)
- GI50 (HOP-92): > 100 µM (inactive)
- GI50 (A498): > 100 µM (inactive)
- GI50 (DMS-114): > 100 µM (inactive)
- GI50 (OVCAR-8): > 100 µM (inactive)
- GI50 (U-251): > 100 µM (inactive)
- GI50 (SF-295): > 100 µM (inactive)
- GI50 (UACC-62): 46.1 µM (inactive)
- GI50 (NCI-H460): > 100 µM (inactive)
- GI50 (SK-OV-3): > 100 µM (inactive)
- GI50 (IGROV-1): > 100 µM (inactive)
- GI50 (NCI-H23): > 100 µM (inactive)
- GI50 (OVCAR-5): > 100 µM (inactive)
- GI50 (SNB-19): > 100 µM (inactive)
- GI50 (UACC-257): > 100 µM (inactive)
- GI50 (RXF 631): > 100 µM (inactive)

SMILES: CC1C(=O)CCC1C(Sc1ccccc1)(Sc1ccccc1)Sc1ccccc1 (stereo not drawn)
- GI50 (HCC 2998): 20.8 µM (inactive)
- GI50 (CCRF-CEM): 3.48 µM (inactive)
- GI50 (M19-MEL): 21.1 µM (inactive)
- GI50 (HT-29): 30.3 µM (inactive)
- GI50 (M14): 25 µM (inactive)
- GI50 (EKVX): 55.6 µM (inactive)
- GI50 (SK-MEL-28): 22.1 µM (inactive)
- GI50 (SNB-78): 37.8 µM (inactive)
- GI50 (HCT-15): 30.3 µM
- GI50 (KM12): 24.7 µM (inactive)
- GI50 (LOX IMVI): 21 µM (inactive)
- GI50 (OVCAR-4): 18.8 µM (inactive)
- GI50 (ACHN): 19.9 µM (inactive)
- GI50 (RPMI-8226): 12.6 µM (inactive)
- GI50 (SK-MEL-5): 16.9 µM (inactive)
- GI50 (K562): 20.5 µM (inactive)
- GI50 (UO-31): 1.32 µM (inactive)
- GI50 (HOP-62): 37.4 µM (inactive)
- GI50 (HCT-116): 16.1 µM (inactive)
- GI50 (TK-10): 47.9 µM (inactive)
- GI50 (SN12C): 21.1 µM (inactive)
- GI50 (SF-268): 10.7 µM (inactive)
- GI50 (XF498): 24.7 µM (inactive)
- GI50 (HL-60): 5.83 µM (inactive)
- GI50 (NCI-H522): 11.1 µM (inactive)
- GI50 (CAKI-1): 16.9 µM (inactive)
- GI50 (MOLT-4): 4.73 µM (inactive)
- GI50 (DMS-273): 23.3 µM (inactive)
- GI50 (SF-539): 18.7 µM (inactive)
- GI50 (Malme-3M): 37.1 µM (inactive)
- GI50 (A549): 9.27 µM (inactive)
- GI50 (RXF 393): 14.2 µM (inactive)
- GI50 (HOP-92): 8.43 µM (inactive)
- GI50 (A498): 23.2 µM (inactive)
- GI50 (786-0): 22.5 µM (inactive)
- GI50 (DMS-114): 13.8 µM (inactive)
- GI50 (OVCAR-8): 24.3 µM (inactive)
- GI50 (U-251): 33.8 µM (inactive)
- GI50 (SF-295): 36.8 µM (inactive)
- GI50 (COLO 205): 38.2 µM (inactive)
- GI50 (OVCAR-3): 17.6 µM (inactive)
- GI50 (LXFL 529): 17.1 µM (inactive)
- GI50 (UACC-62): 18 µM (inactive)
- GI50 (SK-MEL-2): 34.9 µM (inactive)
- GI50 (DLD-1): 28.8 µM (inactive)
- GI50 (NCI-H460): 41.4 µM (inactive)
- GI50 (SW-620): 27 µM (inactive)
- GI50 (SK-OV-3): 80.2 µM (inactive)
- GI50 (IGROV-1): 15.1 µM (inactive)
- GI50 (NCI-H23): 22.5 µM (inactive)
- GI50 (OVCAR-5): > 100 µM (inactive)
- GI50 (SNB-19): 26.5 µM (inactive)
- GI50 (UACC-257): 31.5 µM (inactive)
- GI50 (SNB-75): 17.1 µM (inactive)
- GI50 (RXF 631): 25.9 µM (inactive)

Source: ChEMBL document CHEMBL1201862, “PubChem BioAssay data set” (2004)
